Values quoted from earlier work, collected in article PMC11291853, “Haemodynamic, hormonal and renal actions of osteocrin in normal sheep” (Experimental Physiology, 2024).

How the values were obtained:
[1] = sheep; at comparable circulating concentrations (∼30 pmol/L); ref Charles, Espiner, Richards et al., 1996; cited from earlier work
Description: To our knowledge, the metabolism of the 5 kDa OSTN has not been studied previously in vivo. […] Consistent with this is the longer half‐l ...

NPR-C = details: purified ovine lung tissue membranes; ref Smith et al., 2000; read-out: K d, binding affinity to NPR-C; cited from earlier work
Protocol: Actions of OSTN on muscle cells (Subbotina et al., [2015]) and cartilage/bone (Moffatt et al., [2007]; Thomas et al., [2003]) have been studied, whereas few reports have examined the impact of the peptide on plasma concentrations of NPs and on cardiovascular and renal tissues. A crucial issue is the ability of OSTN, in tissues and in plasma, to impact NP concentrations in health or disease. In mice, constant infusion of the 10 kDa peptide [proOSTN (30–130)] at doses of 10 μg/kg/min (∼1000 pmol/kg/min) increased endogenous plasma ANP (by ∼15 pmol/L), similar to increments evoked by administrati ...

people = test system: people; design: method as in Hirata et al., 1990; details: exogenous ANP infusions achieving plasma concentrations of ∼150 pmol/L, ref Hirata et al., 1990; cited from earlier work

ANP: atrial natriuretic peptide
Clearance rate (MCR) [1]: 5.7 L/min | Kd (NPR-C): 0.008 to 0.016 nM | Increase in nephrogenous cGMP (people): 10 fold
